In US20240294541A1, “COMPOUNDS CONSTITUTING C20-MODIFIED SALINOMYCIN DERIVATIVES, A METHOD FOR OBTAINING THE SAME, A COMPOSITION CONTAINING THE SAME AND A USE OF SAID COMPOUNDS” (FILECLO SPOLKA Z OGRANICZONA ODPOWIEDZIALNOSCIA, priority 2021, published 2024):
Where two headings read alike, the source gives them in different places.

What was measured:
Assay type in all cases: cell-based
[1] = system: A2780Cis (cisplatin-resistant human ovarian cancer); experiment: In vitro cytotoxicity, SRB assay, A2780Cis; conditions: for IC50: Homo sapiens, A2780cis, read-out: IC50 (nM) A2780Cis
[2] = system: BALB/3T3 (normal mouse fibroblasts); experiment: In vitro cytotoxicity, SRB assay, normal BALB/3T3 fibroblasts
[3] = system: MV-4-11 (human biphenotypic leukaemia); experiment: In vitro cytotoxicity, MTT assay, MV-4-11; conditions: for IC50: Homo sapiens, MV4-11, read-out: IC50 (nM) MV4-11
[4] = Table 5, BALB/3T3 normal mouse fibroblasts, read-out: IC50 (nM) BALB3T3 normal cells

Compound	SI A2780Cis [1]	IC50 [1]	IC50 [2, 4]	SI MV4-11 [3]	IC50 [3]	IC50 ([2]; Mus musculus, BALB/3T3, read-out: IC50 (nM) BALB3T3 normal cells)
CC[C@@H](C(=O)[C@@H](C)[C@@H](O)[C@H](C)[C@@H]1O[C@@H]([C@@H](CC)C(=O)O)CC[C@@H]1C)[C@H]1O[C@]2(C=C[C@@H](NC(=O)C(=O)NCc3cccnc3)[C@]3(CC[C@@](C)([C@H]4CC[C@](O)(CC)[C@H](C)O4)O3)O2)[C@H](C)C[C@@H]1C [FLC-00479-1•Na]	15.8	272 nM	4300 nM	12.6	343 nM	–
CC[C@@H](C(=O)[C@@H](C)[C@@H](O)[C@H](C)[C@@H]1O[C@@H]([C@@H](CC)C(=O)O)CC[C@@H]1C)[C@H]1O[C@]2(C=C[C@@H](NS(=O)(=O)c3ccc(C)cc3)[C@]3(CC[C@@](C)([C@H]4CC[C@](O)(CC)[C@H](C)O4)O3)O2)[C@H](C)C[C@@H]1C [FLC-00502-1•Na]	52.7	1.76 nM	92.7 nM	28.1	3.3 nM	–
CC[C@@H](C(=O)[C@@H](C)[C@@H](O)[C@H](C)[C@@H]1O[C@@H]([C@@H](CC)C(=O)O)CC[C@@H]1C)[C@H]1O[C@]2(C=C[C@@H](NC(=O)c3ccncc3)[C@]3(CC[C@@](C)([C@H]4CC[C@](O)(CC)[C@H](C)O4)O3)O2)[C@H](C)C[C@@H]1C [FLC-00487-1•Na]	79.6	45.9 nM	3650 nM	27.5	133 nM	–
CC[C@@H](C(=O)[C@@H](C)[C@@H](O)[C@H](C)[C@@H]1O[C@@H]([C@@H](CC)C(=O)O)CC[C@@H]1C)[C@H]1O[C@]2(C=C[C@@H](NC(=O)NCC3CCC(F)(F)CC3)[C@]3(CC[C@@](C)([C@H]4CC[C@](O)(CC)[C@H](C)O4)O3)O2)[C@H](C)C[C@@H]1C [FLC-00545-1•Na]	186.6	0.57 nM	106 nM	62.8	1.68 nM	–
CC[C@@H](C(=O)[C@@H](C)[C@@H](O)[C@H](C)[C@@H]1O[C@@H]([C@@H](CC)C(=O)O)CC[C@@H]1C)[C@H]1O[C@]2(C=C[C@@H](NC(=O)C(Cl)Cl)[C@]3(CC[C@@](C)([C@H]4CC[C@](O)(CC)[C@H](C)O4)O3)O2)[C@H](C)C[C@@H]1C [FLC-00493-1•Na]	26.9	2.14 nM	57.7 nM	10.6	5.43 nM	–
CC[C@@H](C(=O)[C@@H](C)[C@@H](O)[C@H](C)[C@@H]1O[C@@H]([C@@H](CC)C(=O)O)CC[C@@H]1C)[C@H]1O[C@]2(C=C[C@@H](NC(=O)OCCC#N)[C@]3(CC[C@@](C)([C@H]4CC[C@](O)(CC)[C@H](C)O4)O3)O2)[C@H](C)C[C@@H]1C [FLC-00509-1•Na]	14.7	16.7 nM	246 nM	10.9	22.6 nM	–
CC[C@@H](C(=O)[C@@H](C)[C@@H](O)[C@H](C)[C@@H]1O[C@@H]([C@@H](CC)C(=O)O)CC[C@@H]1C)[C@H]1O[C@]2(C=C[C@@H](NC(=O)OCCc3scnc3C)[C@]3(CC[C@@](C)([C@H]4CC[C@](O)(CC)[C@H](C)O4)O3)O2)[C@H](C)C[C@@H]1C [FLC-00547-1•Na]	≈56.2	< 1.38 nM	77.6 nM	35.2	2.21 nM	–
CC[C@@H](C(=O)[C@@H](C)[C@@H](O)[C@H](C)[C@@H]1O[C@@H]([C@@H](CC)C(=O)O)CC[C@@H]1C)[C@H]1O[C@]2(C=C[C@@H](NC(=O)OCCS(C)(=O)=O)[C@]3(CC[C@@](C)([C@H]4CC[C@](O)(CC)[C@H](C)O4)O3)O2)[C@H](C)C[C@@H]1C [FLC-00483-1•Na]	21.2	250 nM	5310 nM	15.7	339 nM	–
CC[C@@H](C(=O)[C@@H](C)[C@@H](O)[C@H](C)[C@@H]1O[C@@H]([C@@H](CC)C(=O)O)CC[C@@H]1C)[C@H]1O[C@]2(C=C[C@@H](NC(=O)C(=O)NCc3ccccc3Cl)[C@]3(CC[C@@](C)([C@H]4CC[C@](O)(CC)[C@H](C)O4)O3)O2)[C@H](C)C[C@@H]1C [FLC-00477-1•Na]	40.4	3.54 nM	143 nM	46.1	3.11 nM	–
CC[C@@H](C(=O)[C@@H](C)[C@@H](O)[C@H](C)[C@@H]1O[C@@H]([C@@H](CC)C(=O)O)CC[C@@H]1C)[C@H]1O[C@]2(C=C[C@@H](NC(=O)OC3CCN(C)CC3)[C@]3(CC[C@@](C)([C@H]4CC[C@](O)(CC)[C@H](C)O4)O3)O2)[C@H](C)C[C@@H]1C [FLC-00559-1•Na]	16.2	330 nM	5340 nM	17.8	300 nM	–
CC[C@@H](C(=O)[C@@H](C)[C@@H](O)[C@H](C)[C@@H]1O[C@@H]([C@@H](CC)C(=O)O)CC[C@@H]1C)[C@H]1O[C@]2(C=C[C@@H](NC(=O)N3CCC3)[C@]3(CC[C@@](C)([C@H]4CC[C@](O)(CC)[C@H](C)O4)O3)O2)[C@H](C)C[C@@H]1C [FLC-00543-1•Na]	15.2	67 nM	1020 nM	5.9	174 nM	–
CC[C@@H](C(=O)[C@@H](C)[C@@H](O)[C@H](C)[C@@H]1O[C@@H]([C@@H](CC)C(=O)O)CC[C@@H]1C)[C@H]1O[C@]2(C=C[C@@H](NC(=O)OC(C(F)(F)F)C(F)(F)F)[C@]3(CC[C@@](C)([C@H]4CC[C@](O)(CC)[C@H](C)O4)O3)O2)[C@H](C)C[C@@H]1C [FLC-00531-1•Na]	13.2	11 nM	–	6.2	23.3 nM	145 nM
CC[C@@H](C(=O)[C@@H](C)[C@@H](O)[C@H](C)[C@@H]1O[C@@H]([C@@H](CC)C(=O)O)CC[C@@H]1C)[C@H]1O[C@]2(C=C[C@@H](NC(=O)OCCCN(C)C)[C@]3(CC[C@@](C)([C@H]4CC[C@](O)(CC)[C@H](C)O4)O3)O2)[C@H](C)C[C@@H]1C [FLC-00498-1•Na]	6.6	758 nM	5010 nM	3.2	1560 nM	–
CC[C@@H](C(=O)[C@@H](C)[C@@H](O)[C@H](C)[C@@H]1O[C@@H]([C@@H](CC)C(=O)O)CC[C@@H]1C)[C@H]1O[C@]2(C=C[C@@H](NC(=O)c3ccccc3C(F)(F)F)[C@]3(CC[C@@](C)([C@H]4CC[C@](O)(CC)[C@H](C)O4)O3)O2)[C@H](C)C[C@@H]1C [FLC-00578-1•Na]	184.9	1.94 nM	358 nM	59.8	5.99 nM	–
CC[C@@H](C(=O)[C@@H](C)[C@@H](O)[C@H](C)[C@@H]1O[C@@H]([C@@H](CC)C(=O)O)CC[C@@H]1C)[C@H]1O[C@]2(C=C[C@@H](NC(=O)OCCOC(C)(C)C)[C@]3(CC[C@@](C)([C@H]4CC[C@](O)(CC)[C@H](C)O4)O3)O2)[C@H](C)C[C@@H]1C [FLC-00480-1•Na]	43.6	4.25 nM	185 nM	9.7	19.1 nM	–
CC[C@@H](C(=O)[C@@H](C)[C@@H](O)[C@H](C)[C@@H]1O[C@@H]([C@@H](CC)C(=O)O)CC[C@@H]1C)[C@H]1O[C@]2(C=C[C@@H](NS(=O)(=O)c3ccc(Br)cc3)[C@]3(CC[C@@](C)([C@H]4CC[C@](O)(CC)[C@H](C)O4)O3)O2)[C@H](C)C[C@@H]1C [FLC-00504-1•Na]	30.5	2.99 nM	91.3 nM	20.7	4.4 nM	–
CC[C@@H](C(=O)[C@@H](C)[C@@H](O)[C@H](C)[C@@H]1O[C@@H]([C@@H](CC)C(=O)O)CC[C@@H]1C)[C@H]1O[C@]2(C=C[C@@H](NC(=O)OCCN3CCOCC3)[C@]3(CC[C@@](C)([C@H]4CC[C@](O)(CC)[C@H](C)O4)O3)O2)[C@H](C)C[C@@H]1C [FLC-00570-1•Na]	21.2	30 nM	636 nM	14.6	43.7 nM	–
CC[C@@H](C(=O)[C@@H](C)[C@@H](O)[C@H](C)[C@@H]1O[C@@H]([C@@H](CC)C(=O)O)CC[C@@H]1C)[C@H]1O[C@]2(C=C[C@@H](NC(=O)NCc3cccnc3)[C@]3(CC[C@@](C)([C@H]4CC[C@](O)(CC)[C@H](C)O4)O3)O2)[C@H](C)C[C@@H]1C [FLC-00566-1•Na]	47.6	122 nM	5820 nM	22.8	255 nM	–
CC[C@@H](C(=O)[C@@H](C)[C@@H](O)[C@H](C)[C@@H]1O[C@@H]([C@@H](CC)C(=O)O)CC[C@@H]1C)[C@H]1O[C@]2(C=C[C@@H](NC(=O)C(C)(C)C)[C@]3(CC[C@@](C)([C@H]4CC[C@](O)(CC)[C@H](C)O4)O3)O2)[C@H](C)C[C@@H]1C [FLC-00550-1•Na]	42.1	10.6 nM	448 nM	26.6	16.9 nM	–
CC[C@@H](C(=O)[C@@H](C)[C@@H](O)[C@H](C)[C@@H]1O[C@@H]([C@@H](CC)C(=O)O)CC[C@@H]1C)[C@H]1O[C@]2(C=C[C@@H](NC(=O)OCc3ccccc3Cl)[C@]3(CC[C@@](C)([C@H]4CC[C@](O)(CC)[C@H](C)O4)O3)O2)[C@H](C)C[C@@H]1C [FLC-00484-1•Na]	95.4	0.25 nM	23.9 nM	40.7	0.59 nM	–
CC[C@@H](C(=O)[C@@H](C)[C@@H](O)[C@H](C)[C@@H]1O[C@@H]([C@@H](CC)C(=O)O)CC[C@@H]1C)[C@H]1O[C@]2(C=C[C@@H](NC(=O)OCc3cc(Cl)cc(Cl)c3)[C@]3(CC[C@@](C)([C@H]4CC[C@](O)(CC)[C@H](C)O4)O3)O2)[C@H](C)C[C@@H]1C [FLC-00485-1•Na]	23.0	4.62 nM	106 nM	5.3	20 nM	–
